One assay has as its system SLA-2*05:02. The assay is described as follows: Peptide-MHC class I complex stability, scintillation proximity assay (SPA). Details: species or system pig. The settings on record: biotinylated recombinant SLA heavy chain, 125I-β2m, excess unlabeled β2m, read every 40 min, number only if t1/2 ≥ 0.5 h, '-' = not stably binding. The protocol:
(§1) The stability of the selected 198 peptides in complex with relevant SLA class I molecules and β2m was determined using a scintillation proximity assay (SPA), as previously described (Harndahl et al., [2011]). Briefly, biotinylated recombinant MHC class I heavy chains were attached to a streptavidin-coated scintillation microplate together with iodinated (^125I) β2m and candidate peptide resulting in a scintillation signal, which was consecutively measured every 40 min by a scintillation plate counter. The duration of this signal is directly correlated to the stability of the peptide-MHC class I-β2m complex under dissociating conditions and in the presence of excess unlabeled β2m (Harndahl et al., [2011]). Peptides with a half-life ≥ 0.5 h were selected as stable binders.

For another assay, the system named is PBMCs. Description: In vitro peptide stimulation of porcine PBMCs, IFN-γ release assay (ELISA). The format is cell-based, pig. Details: key to T cell response: “x” indicates that a response was found to this given peptide at least once. Conditions: PBMCs of immunized pigs, 2 × 10^5/well, 5 μg/ml peptide, 67.5–70.0 h, IFN-γ ELISA; response = 2-fold increase vs day -2 and at least 25 pg/ml IFN-γ, found at least once; SLA restriction not included. For orientation: ELISA stands for enzyme-linked immunosorbent assay.

Another assay deals with SLA-2*04:01. Description: Peptide-MHC class I complex stability, scintillation proximity assay (SPA). Conditions: biotinylated recombinant SLA heavy chain, 125I-β2m, excess unlabeled β2m, read every 40 min, number only if t1/2 ≥ 0.5 h, '-' = not stably binding. Details: species or system pig. As for the experimental part: as §1
In general terms: In a scintillation proximity assay essentially only radioactivity close to the scintillant gives light.

Another assay concerns SLA-3*04:01. Described as above. Details: species or system pig. The settings on record: biotinylated recombinant SLA heavy chain, 125I-β2m, excess unlabeled β2m, read every 40 min, number only if t1/2 ≥ 0.5 h, '-' = not stably binding. The protocol:
as §1

Turning to “AIAKNLPELI [IDO3, porcine IDO-derived 9-11mer peptide]”, the “Binder (t1/2 ≥ 0.5 h): half-life of peptide-SLA-2*05:02 complex” value (“Binder … of peptide-SLA-2*05:02 complex” for short) with SLA-2*05:02 amounted to 54 min.
As to “ANRISAFGY [RhoC2, porcine RhoC-derived 9-11mer peptide]”, the T cell response result with PBMCs was “x”. The “Binder (t1/2 ≥ 0.5 h): half-life of peptide-SLA-2*04:01 complex” value (from here on “Binder … of peptide-SLA-2*04:01 complex”) in the assay with SLA-2*04:01 is 156 min. Moreover, the “Binder (t1/2 ≥ 0.5 h): half-life of peptide-SLA-3*04:01 complex” value (“Binder … of peptide-SLA-3*04:01 complex” below) with SLA-3*04:01 was “- (t1/2 (hours) is listed for each of the stably binding peptides (t1/2 ≥ 0.5 h))”.
For the sequence “DIRKVLPRNI [IDO10, porcine IDO-derived 9-11mer peptide]”, the “Binder … of peptide-SLA-2*05:02 complex” value with SLA-2*05:02 is listed as “- (t1/2 (hours) is listed for each of the stably binding peptides (t1/2 ≥ 0.5 h))”.
The same measure, in the same setting: the value for “EELPHPYDAWI [IDO14, porcine IDO-derived 9-11mer peptide]” was “- (t1/2 (hours) is listed for each of the stably binding peptides (t1/2 ≥ 0.5 h))”; that for “ELAKMKQEP [RhoC15, porcine RhoC-derived 9-11mer peptide]” was “- (t1/2 (hours) is listed for each of the stably binding peptides (t1/2 ≥ 0.5 h))”.
As to “ELPHPYDAWI [IDO18, porcine IDO-derived 9-11mer peptide]”, the “Binder … of peptide-SLA-2*05:02 complex” value in the assay with SLA-2*05:02 was determined as 348 min.
As for “ENIPEKWTP [RhoC17, porcine RhoC-derived 9-11mer peptide]”, the “Binder … of peptide-SLA-2*05:02 complex” value with SLA-2*05:02 was 66 min.
Consider “ENRGTGGTNVI [IDO19, porcine IDO-derived 9-11mer peptide]”, for which, in the assay with SLA-2*05:02, the “Binder … of peptide-SLA-2*05:02 complex” value is reported as “- (t1/2 (hours) is listed for each of the stably binding peptides (t1/2 ≥ 0.5 h))”.
In the case of “FLVSLLVEI [IDO25, porcine IDO-derived 9-11mer peptide]”, the “Binder … of peptide-SLA-2*05:02 complex” value with SLA-2*05:02 was “- (t1/2 (hours) is listed for each of the stably binding peptides (t1/2 ≥ 0.5 h))”.
As to “HKALEVFHQI [IDO36, porcine IDO-derived 9-11mer peptide]”, the “Binder … of peptide-SLA-2*05:02 complex” value in the assay with SLA-2*05:02 is “- (t1/2 (hours) is listed for each of the stably binding peptides (t1/2 ≥ 0.5 h))”.
Regarding “HLQIVTKYI [IDO38, porcine IDO-derived 9-11mer peptide]”, the “Binder … of peptide-SLA-2*05:02 complex” value in the assay with SLA-2*05:02 is 30 min.
Take “HLQIVTKYIVI [IDO39, porcine IDO-derived 9-11mer peptide]”: the “Binder … of peptide-SLA-2*05:02 complex” value with SLA-2*05:02 is 36 min.
For “IAIAKNLPELI [IDO44, porcine IDO-derived 9-11mer peptide]”, the “Binder … of peptide-SLA-2*05:02 complex” value in the assay on SLA-2*05:02 was “- (t1/2 (hours) is listed for each of the stably binding peptides (t1/2 ≥ 0.5 h))”.
Same read-out and setting: for “KALEVFHQI [IDO45, porcine IDO-derived 9-11mer peptide]” the value was “- (t1/2 (hours) is listed for each of the stably binding peptides (t1/2 ≥ 0.5 h))”.
In the case of “KLSEKLGLPPI [IDO56, porcine IDO-derived 9-11mer peptide]”, the “Binder … of peptide-SLA-2*05:02 complex” value in the assay on SLA-2*05:02 is “- (t1/2 (hours) is listed for each of the stably binding peptides (t1/2 ≥ 0.5 h))”.
Turning to “KNKRRRGCPI [RhoC31, porcine RhoC-derived 9-11mer peptide]”, in the assay on PBMCs, the T cell response result is given as “x”. In the assay with SLA-3*04:01, the “Binder … of peptide-SLA-3*04:01 complex” value stood at 42 min.
As to “KNMDILFSF [IDO58, porcine IDO-derived 9-11mer peptide]”, the T cell response entry with PBMCs was “x”. Moreover, in the assay with SLA-2*04:01, the “Binder … of peptide-SLA-2*04:01 complex” value came out at 480 min. In addition, the “Binder … of peptide-SLA-3*04:01 complex” value in the assay with SLA-3*04:01 is on record as “- (t1/2 (hours) is listed for each of the stably binding peptides (t1/2 ≥ 0.5 h))”.
In the case of “KVIPTLFNAI [IDO61, porcine IDO-derived 9-11mer peptide]”, the “Binder … of peptide-SLA-2*05:02 complex” value in the assay on SLA-2*05:02 is given as “- (t1/2 (hours) is listed for each of the stably binding peptides (t1/2 ≥ 0.5 h))”.
Still for that read-out and setting: for “LSEKLGLPPI [IDO72, porcine IDO-derived 9-11mer peptide]” the value was “- (t1/2 (hours) is listed for each of the stably binding peptides (t1/2 ≥ 0.5 h))”.
In the case of “LSYPDTDVI [RhoC35, porcine RhoC-derived 9-11mer peptide]”, in the assay on SLA-2*05:02, the “Binder … of peptide-SLA-2*05:02 complex” value is “- (t1/2 (hours) is listed for each of the stably binding peptides (t1/2 ≥ 0.5 h))”. Further, the “Binder … of peptide-SLA-2*04:01 complex” value in the assay with SLA-2*04:01 is “- (t1/2 (hours) is listed for each of the stably binding peptides (t1/2 ≥ 0.5 h))”.
For the sequence “MAAIRKKLVI [RhoC40, porcine RhoC-derived 9-11mer peptide]”, the “Binder … of peptide-SLA-2*05:02 complex” value with SLA-2*05:02 stood at 30 min.
For “MQRLAHLVL [IDO78, porcine IDO-derived 9-11mer peptide]”, the “Binder … of peptide-SLA-3*04:01 complex” value in the assay on SLA-3*04:01 is “- (t1/2 (hours) is listed for each of the stably binding peptides (t1/2 ≥ 0.5 h))”.
With “MTYKNMDILFS [IDO82, porcine IDO-derived 9-11mer peptide]”, the “Binder … of peptide-SLA-3*04:01 complex” value in the assay with SLA-3*04:01 was “- (t1/2 (hours) is listed for each of the stably binding peptides (t1/2 ≥ 0.5 h))”.
With “MVSLRNYHLQI [IDO84, porcine IDO-derived 9-11mer peptide]”, in the assay on SLA-2*05:02, the “Binder … of peptide-SLA-2*05:02 complex” value is listed as “- (t1/2 (hours) is listed for each of the stably binding peptides (t1/2 ≥ 0.5 h))”.
On to “NKRRRGCPI [RhoC41, porcine RhoC-derived 9-11mer peptide]”, for which, in the assay on SLA-3*04:01, the “Binder … of peptide-SLA-3*04:01 complex” value is “- (t1/2 (hours) is listed for each of the stably binding peptides (t1/2 ≥ 0.5 h))”.
The same measure, in the same setting: for “QEMRTYMPP [IDO101, porcine IDO-derived 9-11mer peptide]” the value was “- (t1/2 (hours) is listed for each of the stably binding peptides (t1/2 ≥ 0.5 h))”.
Turning to “QRLAHLVLGY [IDO102, porcine IDO-derived 9-11mer peptide]”, the “Binder … of peptide-SLA-2*04:01 complex” value in the assay on SLA-2*04:01 is recorded as “- (t1/2 (hours) is listed for each of the stably binding peptides (t1/2 ≥ 0.5 h))”. Also, in the assay on SLA-3*04:01, the “Binder … of peptide-SLA-3*04:01 complex” value is reported as “- (t1/2 (hours) is listed for each of the stably binding peptides (t1/2 ≥ 0.5 h))”.
Regarding “RKNKRRRGCPI [RhoC44, porcine RhoC-derived 9-11mer peptide]”, the “Binder … of peptide-SLA-3*04:01 complex” value in the assay with SLA-3*04:01 is recorded as “- (t1/2 (hours) is listed for each of the stably binding peptides (t1/2 ≥ 0.5 h))”.
Same read-out and setting: the value for “RLRPLSYPD [RhoC45, porcine RhoC-derived 9-11mer peptide]” was “- (t1/2 (hours) is listed for each of the stably binding peptides (t1/2 ≥ 0.5 h))”.
Turning to “RNFLHSLES [IDO105, porcine IDO-derived 9-11mer peptide]”, the T cell response result in the assay with PBMCs is reported as “x”. Further, the “Binder … of peptide-SLA-3*04:01 complex” value in the assay with SLA-3*04:01 worked out at 882 min.
With “RNFLHSLESG [IDO106, porcine IDO-derived 9-11mer peptide]”, the “Binder … of peptide-SLA-3*04:01 complex” value in the assay with SLA-3*04:01 was 30 min.
Consider “RNFLHSLESGP [IDO107, porcine IDO-derived 9-11mer peptide]”, for which the T cell response entry in the assay with PBMCs was “x”. Further, the “Binder … of peptide-SLA-3*04:01 complex” value with SLA-3*04:01 stood at 42 min.
In the case of “RNIAIPYCKL [IDO108, porcine IDO-derived 9-11mer peptide]”, the “Binder … of peptide-SLA-3*04:01 complex” value in the assay with SLA-3*04:01 is “- (t1/2 (hours) is listed for each of the stably binding peptides (t1/2 ≥ 0.5 h))”.
“RNIAIPYCKLS [IDO109, porcine IDO-derived 9-11mer peptide]”: the “Binder … of peptide-SLA-3*04:01 complex” value in the assay on SLA-3*04:01 is “- (t1/2 (hours) is listed for each of the stably binding peptides (t1/2 ≥ 0.5 h))”.
Consider “RNYHLQIVT [IDO110, porcine IDO-derived 9-11mer peptide]”, for which, in the assay with SLA-2*04:01, the “Binder … of peptide-SLA-2*04:01 complex” value was “- (t1/2 (hours) is listed for each of the stably binding peptides (t1/2 ≥ 0.5 h))”. Moreover, in the assay with SLA-3*04:01, the “Binder … of peptide-SLA-3*04:01 complex” value is “- (t1/2 (hours) is listed for each of the stably binding peptides (t1/2 ≥ 0.5 h))”.
For the sequence “RNYHLQIVTK [IDO111, porcine IDO-derived 9-11mer peptide]”, the “Binder … of peptide-SLA-2*04:01 complex” value in the assay with SLA-2*04:01 is recorded as “- (t1/2 (hours) is listed for each of the stably binding peptides (t1/2 ≥ 0.5 h))”. In the assay with SLA-3*04:01, the “Binder … of peptide-SLA-3*04:01 complex” value is reported as “- (t1/2 (hours) is listed for each of the stably binding peptides (t1/2 ≥ 0.5 h))”.
“RNYHLQIVTKY [IDO112, porcine IDO-derived 9-11mer peptide]”: in the assay on SLA-2*04:01, the “Binder … of peptide-SLA-2*04:01 complex” value amounted to 216 min. The “Binder … of peptide-SLA-3*04:01 complex” value in the assay with SLA-3*04:01 is 30 min.
For “VLSKGDALL [IDO127, porcine IDO-derived 9-11mer peptide]”, the “Binder … of peptide-SLA-2*05:02 complex” value with SLA-2*05:02 is reported as “- (t1/2 (hours) is listed for each of the stably binding peptides (t1/2 ≥ 0.5 h))”.
Still for that read-out and setting: the value for “VPTVFENYI [RhoC54, porcine RhoC-derived 9-11mer peptide]” was 108 min.
“YDRLRPLSY [RhoC56, porcine RhoC-derived 9-11mer peptide]”: in the assay on SLA-3*04:01, the “Binder … of peptide-SLA-3*04:01 complex” value is on record as “- (t1/2 (hours) is listed for each of the stably binding peptides (t1/2 ≥ 0.5 h))”.
Same read-out and setting: for “YDRLRPLSYPD [RhoC57, porcine RhoC-derived 9-11mer peptide]” the value was “- (t1/2 (hours) is listed for each of the stably binding peptides (t1/2 ≥ 0.5 h))”.
In the case of “YVPTVFENYI [RhoC61, porcine RhoC-derived 9-11mer peptide]”, in the assay with SLA-2*05:02, the “Binder … of peptide-SLA-2*05:02 complex” value is 42 min.
